Where two headings read alike, the source gives them in different places.
Assays:
[1] = tested on: secondary conditioned response; experiment: inhibition of the secondary conditioned response in rats (anxiolytic and tranquilizing properties); assay type: in vivo; settings: 60 mg/kg i.p.
Procedure: (§1) The depressant activity of the new pyrroloimidazole-diones on the C.N.S. of animals is evidenced by testing the compounds in mice according to the Irwin method. The tranquilizing and anxiolytic activity is evaluated on the basis of the secondary conditioned response in rats.

C.N.S. = experiment: Irwin test (Irwin method) in mice, depressant activity on the C.N.S.; assay type: in vivo; settings: Mus musculus, ip
Procedure: as §1
In experiments in mice with the representative compound α-2-(o-chlorophenyl)-5,6,7,7a-tetrahydro-1,3(2H)-dioxo-1H-pyrrolo[1,2-c]imidazolo-5-carboxylic acid, the following ED50 values were determined for parameters of the Irwin test which are related to sedative and hypnotic activities.

[2] = acute toxicity (LD50) in mice; settings: mouse, in vivo, ip

## CCN(CC)C(=O)C1CCC2C(=O)N(c3cccc(Cl)c3)C(=O)N12 (stereo not drawn) [Example 13, α-5-diethylcarbamyl-2-(m-chlorophenyl)-5,6,7,7a-tetrahydro-1H-pyrrolo[1,2-c]imidazole-1,3(2H)-dione]
[1]
  Deconditioned/Conditioned: 7/10

## CCN(CC)C(=O)C1CCC2C(=O)N(c3cccc(C(F)(F)F)c3)C(=O)N12 (centres unmarked) [Example 37, 5-diethylcarbamyl-2-(m-trifluoromethyl)phenyl-5,6,7,7a-tetrahydro-1H-pyrrolo-[1,2-c]imidazole-1,3(2H)-dione]
[1]
  Deconditioned/Conditioned: 10/10

## O=C(O)C1CCC2C(=O)N(c3ccccc3Cl)C(=O)N12 (stereo not drawn) [α-2-(o-chlorophenyl)-5,6,7,7a-tetrahydro-1,3(2H)-dioxo-1H-pyrrolo[1,2-c]imidazolo-5-carboxylic acid]
C.N.S.; read-out: ED50, Impairment of motor coordination
  ED50: 100 mg/kg
C.N.S.; read-out: ED50, Minimal hypnotic dose
  ED50: 200 mg/kg
C.N.S.; read-out: ED50, Righting reflex
  ED50: 80 mg/kg
C.N.S.; read-out: ED50, Spontaneous activity
  ED50: 100 mg/kg
[2]
  LD50: ~700 mg/kg

## CCNC(=O)C1CCC2C(=O)N(c3ccccc3)C(=O)N12 (stereo not drawn) [Example 14, α-5-ethylcarbamyl-2-phenyl-5,6,7,7a-tetrahydro-1H-pyrrolo[1,2-c]imidazole-1,3(2H)-dione]
[1]
  Deconditioned/Conditioned: 7/10

## CCN(CC)C(=O)C1CCC2C(=O)N(c3ccccc3)C(=O)N12 (stereo not drawn) [Example 12, α-5-diethylcarbamyl-2-phenyl-5,6,7,7a-tetrahydro-1H-pyrrolo[1,2-c]imidazole-1,3(2H)-dione]
[1]
  Deconditioned/Conditioned: 8/10

## CCN(CC)C(=O)C1CCC2C(=O)N(c3ccccc3)C(=O)N12 (single isomer, unassigned) [Example 21, α(+)-5-diethylcarbamyl-2-phenyl-5,6,7,7a-tetrahydro-1H-pyrrolo[1,2-c]imidazole-1,3(2H)-dione]
[1]; 60 mg/kg
  Deconditioned/Conditioned: 7/10

## CCN(CC)C(=O)C1CCC2C(=O)N(c3ccccc3)C(=O)N12 (single isomer, unassigned) [Example 22, α(-)-5-diethylcarbamyl-2-phenyl-5,6,7,7a-tetrahydro-1H-pyrrolo[1,2-c]imidazole-1,3(2H)-dione]
[1]; 60 mg/kg
  Deconditioned/Conditioned: 6/10
